Patent publication US10556860B2, “hTERT modulators and methods of use” (Arizona Board of Regents on Behalf of the University of …, priority 2015, dated 2020)

Key:
[1] = test system: WT 5-12 G-quadruplex; experiment: CD kinetics, temperature-jump, WT; format: biochemical, human; conditions: 2 equiv
Description: (§1) FIGS. 10A and 10B are a set of graphs showing (A) comparison of kinetics of initial folding rate of the WT 5-12 G-quadruplex with GTC365 and BRACO-19 by the temperature-jump method. (B) Enhanced initial folding rate of the 5-12 G-quadruplexes carrying different hTERT mutants by GTC365. The time-course CD signal of preheated oligo with compound or DMSO in a buffer containing 10 mM Tris-HCl (pH 7.5) and 5 mM KCl was monitored at 262 nm and 25° C.
(§2) For the kinetics analysis using the temperature-jump method, theoligo in a buffer containing 10 mM Tris-HCl (pH 7.5) was heated forl min at 95° C., and then a mixture of KCl and compound was addedand incubated for 1 min. Meanwhile, the CD cuvette was also heatedat 95° C. As soon as the sample in the CD cuvette at the hightemperature was placed in the CD chamber, a time-dependent CDsignal at 262 nm was recorded immediately. The initial folding ratewas determined by one-phase association curve fitting (eq 1) of thekinetics curve using GraphPad Prism 5: Y=Y0+(Plateau−Y0)*(1−e^−kx) (1) where Y is the CD signal at any time point x, Y0 is the Y value whentime (x) is zero, plateau is the Y value at infinite time, and k is the rateconstant.
To evaluate the comparative effects of GTC365 relative to BRACO-19 on the cooperative folding process, we carried out two different experiments. First, we compared the distribution of the different populations of small and large species using single-molecule experiments as described previously withGTC365 and BRACO-19 in the G138/139A mutant. Similar to the G124/125A mutant, the population of fully folded structures is small in the G138/139A mutant without addition of ligand. […] We then used a temperature-jump method84to compare the initial folding rate of the 5-12 WT G-quadruplex with GTC365 and BRACO-19 using a time-course CD signal curve. […] GTC365 alsoincreased the initial folding rates of G124A, G124/125A, andG146A in a dose-dependent manner by 0.049, 0.042, and 0.054s^−1 at 2 equiv, whereas the effect on the G138/139A mutant was insignificant (FIG. 10B). […]

[2] = test system: telomere length in MCF7 cells; experiment: Telomere length assay (qPCR) in MCF7 cells; format: cell-based, human; conditions: 0.5 μM
Description: Telomere length assay. MCF7 cells were treated with DMSO, GTC365 for 5-10 days, or BRACO-19 for 25-30 days. Meanwhile, cells were subcultured to maintain <90% confluent. Cells were collected by cell scraper and then subjected to gDNA extraction by DNA extraction kit (Qiagen). Ten ng of gDNA was used for SYBR Green I-based qPCR assay with 1 M betaine, 700 nM telomere primers, and 200 nM 36B4 single-copy gene. A pair of Tel1 and Tel2 was used for amplification of the telomere region and a pair of 36B4F and 36B4R for amplification of a single-copy gene to normalize data. The PCR was initiated at 95° C. for 3 min and then 27 cycles at 95° C. for 3 sec and 60° C. for 2 min. The fluorescence signal at 60° C. was acquired. Triplicate data was averaged and normalized to 36B4 to obtain ΔCt. The relative telomere length was determined compared to the DMSO.
hTERT-positive MCF7 breast cancer cell lines were used to gain mechanistic insight into how the GTC365-induced inhibition of proliferation occurs. Change in relative telomere length by GTC365 was measured by qPCR with gDNA extracted from GTC365-treated MCF7 cells. After 10 days of treatment GTC365 decreased telomere length in a dose-dependent manner, and at a dose of 0.5 μM, the telomere length was reduced by 20%. In contrast, BRACO-19 reduced telomere length by ˜12% at the same concentration but required 25-30 days of treatment (FIG. 9).

[3] = test system: G124A 5-12 G-quadruplex; experiment: CD kinetics, temperature-jump, G124A; format: biochemical, human; conditions: 2 equiv
Description: as §1, §2
To evaluate the comparative effects of GTC365 relative to BRACO-19 on the cooperative folding process, we carried out two different experiments. […]

[4] = test system: hTERT mRNA in melanoma cells carrying WT, G124A, G124/125A, G138/139A and G146A; experiment: qPCR of hTERT mRNA in melanoma cells (WT and mutants); format: cell-based, human; conditions: WT and all mutant melanoma cells, 72 h, 1 μM
Description: Cell cultures. MCF7 and melanoma (UACC 383) cells were cultured in media of RPMI-1640 with 10% FBS and 1% penicillin/streptomycin. For melanoma cells UACC 2512, UACC 3090, UACC 1729, and UACC 2528, 20% FBS was included in the RPMI media instead of 10% FBS. Cells were incubated at 37° C. with 5% CO2.
qPCR. MCF7 and melanoma cells were treated with GTC365 and BRACO-19 for 72 h. Total RNA was extracted using an RNeasy mini-prep kit (Qiagen) and quantitated by measuring absorbance at 260 nm. cDNA was synthesized using a Takara PrimeScript™ RT Reagent Kit with gDNA eraser and then used as a template for qPCR. The qPCR was performed using Kapa Probe Fast qPCR Master Mix with ABI Taqman probes of hTERT (Hs00972656_m1), BCL2 (HS00608023_m1, FAM-labeled) or MYC (Hs00153408_m1), and GAPDH (Hs02758991_g1, VIC-labeled). The Ct values were measured by running Rotor-Gene Q, and the relative quantity of hTERT, BCL2, and MYC mRNA was obtained compared to GAPDH as an internal control.
To determine the cellular effect of GTC365 on proliferation as well as suppression of the activation of hTERT by G124A, G124/125A, G138/139A, and G146A mutants, melanoma cell lines were used alongside a WT cell line. All mutants increased the mRNA level of hTERT, compared to WT melanoma cells, in the 6.6-34-fold range. […]

[5] = test system: BAX/BCL2 mRNA ratio; experiment: BAX/BCL2 ratio in MCF7 cells; format: cell-based, human; conditions: 0.5-1 μM, 72 h, relative to DMSO
Description: FIG. 11 is a graph showingincrease of BAX/BCL2 ratios by GTC365 in mRNA levels. MCF7 cells were treated with GTC365 for 72 h and then subjected to qPCR and immunoblot analysis. The relative ratio of BAX/BCL2 was determined compared with a DMSO-treated sample.
Indeed at 0.5-1 μM, the BAX/BCL2 ratio was increased by over 2-fold and the capase-3 activity was increased by 47% (FIGS. 11 and 12).

Compound	increase of initial folding rate [1] [s⁻¹]	reduction of telomere length ([2]; 25-30 days) [%]	initial folding rate ([1]; without compound 0.051, 5 mM KCl, 25° C.) [s⁻¹]	increase of initial folding rate [3] [s⁻¹]	decrease in the mRNA level of hTERT [4] [%]	reduction of telomere length ([2]; 10 days) [%]	increase of BAX/BCL2 ratio [5]
CN(C)c1ccc(Nc2c3ccc(NC(=O)CCN4CCCC4)cc3nc3cc(NC(=O)CCN4CCCC4)ccc23)cc1 [BRACO-19, reference compound]	0.017	~12					
N=C(N)NCCCS(=O)(=O)Nc1ccc(Nc2c3ccccc3nc3cc([N+](=O)[O-])ccc23)cc1 [GTC365]	0.042		0.093	0.049	25	20	over 2 fold
